Patent US20260027068A1, “METHODS OF ADM[…]-KETAMINE” (Perception Neuroscience, Inc., priority 2022, published 2026)

System: subjects with TRD
Test: Clinician-Administered Dissociative States Scale (CADSS)
Protocol: The Investigational Medicinal Product (IMP) R(−)-ketamine hydrochloride in sterile water for intravenous injection was investigated as an […] treatment of TRD. The International Union of Pure and Applied Chemistry (IUPAC) name is of the IMP is (2R)-2-(2-chlorophenyl)-2-(methylamino)cyclohexan-1-one. Subjects received the solution at either 30 mg or 60 mg dose, or a placebo. The IMP or placebo was administered on Day 1 as a single IV infusion via an electronic infusion pump over 40 minutes. The duration of study participation for each subject was up to 29 days including a screening period, a 3-day in-clinic visit, and 2 follow-up visits. 101 subjects were enrolled in approximately 20 study centers in the EU and the US.
The CADSS was to assess the alertness or dissociative state of subjects administered R(−)-ketamine. The study staff evaluated the subject's degree of dissociation by administering the CADSS questionnaire pre-dose; at 40 minutes post-dose (at EoI); and at 2 and 4 hours post-dose.

[1] = 30 mg, 40 min post infusion start, n 33
[2] = 30 mg, 2 hours post infusion start, n 33
[3] = 30 mg, 4 hours post infusion start, n 33
[4] = 30 mg, 6 hours post infusion start, n 10
[5] = 30 mg, to 40 min post infusion start, n 33
[6] = 30 mg, to 2 hours post infusion start, n 33
[7] = 30 mg, to 4 hours post infusion start, n 33
[8] = 60 mg, 40 min post infusion start, n 35
[9] = 60 mg, 2 hours post infusion start, n 35
[10] = 60 mg, 4 hours post infusion start, n 34
[11] = 60 mg, 6 hours post infusion start, n 11
[12] = 60 mg, to 40 min post infusion start, n 35
[13] = 60 mg, to 2 hours post infusion start, n 35
[14] = 60 mg, to 4 hours post infusion start, n 34

**Q.** Which results are given for CN[C@@]1(c2ccccc2Cl)CCCCC1=O [PCN 101]?
**A.** CADSS score, Mean [1]: 3.9; CADSS score, Median [1]: 2.0; CADSS score, Mean [2]: 1.1; CADSS score, Median [2]: 0.0; CADSS score, Mean [3]: 0.4; CADSS score, Median [3]: 0.0; CADSS score, Mean [4]: 0.0; CADSS score, Median [4]: 0.0; CADSS change from baseline, Mean [5]: 3.9; CADSS change from baseline, Median [5]: 2.0; CADSS change from baseline, Mean [6]: 1.1; CADSS change from baseline, Median [6]: 0.0; CADSS change from baseline, Mean [7]: 0.4; CADSS change from baseline, Median [7]: 0.0; CADSS change from baseline, Mean (30 mg, to 6 hours, n 10): −0.1; CADSS change from baseline, Median (30 mg, to 6 hours, n 10): 0.0; CADSS score, Mean [8]: 4.3; CADSS score, Median [8]: 0.0; CADSS score, Mean [9]: 1.1; CADSS score, Median [9]: 0.0; CADSS score, Mean [10]: 0.3; CADSS score, Median [10]: 0.0; CADSS score, Mean [11]: 0.0; CADSS score, Median [11]: 0.0; CADSS change from baseline, Mean [12]: 4.0; CADSS change from baseline, Median [12]: 0.0; CADSS change from baseline, Mean [13]: 0.8; CADSS change from baseline, Median [13]: 0.0; CADSS change from baseline, Mean [14]: −0.0; CADSS change from baseline, Median [14]: 0.0; CADSS change from baseline, Mean (60 mg, to 6 hours, n 11): 0.0; CADSS change from baseline, Median (60 mg, to 6 hours, n 11): 0.0
